Test results: patent publication US10191050B2, “Rationale, methods, and assays for identifying human and non-human primate taste specific genes and use thereof in taste modulator and therapeutic screening assays” (SENOMYX, INC., priority 2007, dated 2019)

Tested on: perceived human salt intensity
Assay: Human salty taste test: effect on perceived salt intensity (experiments by the inventors)
Type: in vivo
Description: Unlike other mammals, amiloride only slightly reduces the intensity of sodium chloride taste, i.e., by about 15-20% when used at concentrations that specifically modulate ENaC function (Halpern, B. P. (1998) Neuroscience and Behavioral Reviews. 23: 5-47). […] Thus, additional non-ENaC genes are likely involved in human salty taste.

SMILES | effect on perceived human salt intensity (tested at 300-fold above IC50 for alpha beta gamma ENaC (10-fold over IC50 for delta beta gamma ENaC)) | effect on perceived human salt intensity (tested at 3000-fold above IC50 for alpha beta gamma ENaC (100-fold over IC50 for delta beta gamma ENaC))
N=C(N)NC(=O)c1nc(Cl)c(N)nc1N [amiloride] | did not elicit a significant effect | –
NC(=Nc1ccccc1)NC(=O)c1nc(Cl)c(N)nc1N [phenamil] | – | did not elicit a significant effect
